According to patent publication US5008401A, “Cyanine compounds” (Asahi Chemical Co., Ltd., priority 1990, dated 1991):

What was measured:
[1] = Test for solubility in solvent; format: physicochemical; conditions: for Solubility: methanol, room temperature
Procedure: Each of cyanine dyes as shown below in Table 2 was dissolved in methanol and the solubility was determined at room temperature with the results indicated below in Table 2.

[2] = Absorption maximum (λmax) and molar absorptivity (ε) in solution; format: physicochemical

| Compound | Solubility [1] | ε ([2]; diacetone alcohol) [cm⁻¹] | λmax ([2]; diacetone alcohol) [nm] | other results |
| --- | --- | --- | --- | --- |
| CCOc1ccc2c(c1)C(C)(C)C(=CC=CC=CC=CC1=[N+](C)c3ccc(OCC)cc3C1(C)C)N2C [Compound A, reference compound] | up to 10 g/1 |  |  | solubility in solvents (in words) [1]: does not exhibit good solubility in solvents |
| CCOc1ccc2c(c1)C(C)(C)C(=CC=CC=CC1=[N+](C)c3ccc(OCC)cc3C1(C)C)N2C [Compound B, reference compound] | up to 10 g/1 |  |  | solubility in solvents (in words) [1]: not satisfactory in solubility in solvents |
| CCN1C(=CC=CC=CC2=[N+](CC)c3c(OC)cc(OC)cc3C2(C)C)C(C)(C)c2cc(OC)cc(OC)c21 [Preparation Example 1] | 30 g/1 |  |  |  |
| CCOc1cc(OCC)c2c(c1)C(C)(C)C(=CC=CC=CC1=[N+](CC)c3c(OCC)cc(OCC)cc3C1(C)C)N2CC [Preparation Example 2] |  |  |  | ε ([2]; dichloromethane): 1.72×10^5 cm^-; λmax ([2]; dichloromethane): 698 nm |
| COCN1C(=CC=CC=CC2=[N+](COC)c3cc(OC)c(OC)cc3C2(C)C)C(C)(C)c2cc(OC)c(OC)cc21 [Preparation Example 3] | at least 30 g/1 | 160000 | 702 |  |
| COc1cc(C)c2c(c1)C(C)(C)C(=CC=CC=CC1=[N+](CCO)c3c(C)cc(OC)cc3C1(C)C)N2CCO [Preparation Example 4] |  | 184000 | 679 |  |
| COCCN1C(=CC=CC=CC2=[N+](CCOC)c3c(C)cc(OC)cc3C2(C)C)C(C)(C)c2cc(OC)cc(C)c21 [Preparation Example 5] |  | 185000 | 679 |  |
| CCCN1C(=CC=CC=CC2=[N+](CCC)c3cc(C)c(OC)cc3C2(C)C)C(C)(C)c2cc(OC)c(C)cc21 [Preparation Example 6] | at least 30 g/1 | 174000 | 683 |  |
| CCOc1cc(C)c2c(c1)C(C)(C)C(=CC=CC=CC1=[N+](CC)c3c(C)cc(OCC)cc3C1(C)C)N2CC [Preparation Example 7] |  |  |  | ε ([2]; dichloroethane): 1.75×10^5 cm^-; λmax ([2]; dichloroethane): 681 nm |
| CCCOc1cc(C)c2c(c1)C(C)(C)C(=CC=CC=CC1=[N+](CC)c3c(C)cc(OCCC)cc3C1(C)C)N2CC [Preparation Example 8] |  |  | 683 |  |
| CCc1cc(OC)cc2c1N(CC)C(=CC=CC=CC1=[N+](CC)c3c(CC)cc(OC)cc3C1(C)C)C2(C)C [Preparation Example 9] |  | 182000 | 681 |  |
| COc1cc(C(C)C)c2c(c1)C(C)(C)C(=CC=CC=CC1=[N+](C)c3c(C(C)C)cc(OC)cc3C1(C)C)N2C [Preparation Example 10] |  | 162000 | 681 |  |
| CCCCN1C(=CC=CC=CC2=[N+](CCCC)c3cc(OC)c(OC)cc3C2(C)C)C(C)(C)c2cc(OC)c(OC)cc21 [Preparation Example 11] | at least 30 g/1 | 162000 | 703 |  |
| CCCCN1C(=CC=CC=CC2=[N+](CCCC)c3cc(OC)c(OC)cc3C2(C)C)C(C)(C)c2cc(OC)c(OC)cc21 [Preparation Example 12] |  |  |  | ε ([2]; dichloromethane): 161000 cm⁻¹; λmax ([2]; dichloromethane): 699 nm |
| COc1cc(OC)c2c(c1)C(C)(C)C(=CC=CC=CC1=[N+](CCOC(C)=O)c3c(OC)cc(OC)cc3C1(C)C)N2CCOC(C)=O [Preparation Example 13] |  | 175000 | 693 |  |
| COCCN1C(=CC=CC=CC2=[N+](CCOC)c3c(OC)cc(OC)cc3C2(C)C)C(C)(C)c2cc(OC)cc(OC)c21 [Preparation Example 14] | at least 30 g/1 | 180000 | 695 |  |
